Measured values from US9725460B2, “Oridonin analogs, compositions, and methods related thereto” (THE BOARD OF REGENTS OF THE UNIVERSITY OF TEXAS SYSTEM, priority 2013, dated 2017).

What was measured:
Format in all cases: cell-based, human
MDA-MB-231 = test: MTT cancer cell proliferation assay, MDA-MB-231; settings: Homo sapiens, MDA-MB-231, 48 h, Table 3; pyran-fused diterpenoids; MTT 48 h; mean ± SE of three experiments; read-out: IC50 (μM) MDA-MB-231
Experimental: (§1) In Vitro Determination of Effects of Synthesized Diterpenoids on Cancer Cell Proliferation. Breast cancer cell lines MCF-7, MDA-MB-231, […] and MCF/ADR were seeded in 96-well plates at a density of 1×10^4 cells/well and treated with DMSO and 0.01, 0.1, 1, 5, 10, and 100 μM of individual compound for 48 h, and then 20 μL of 3-(4,5-dimethylthiazol-2-yl)-2,5-diphenyltetrazolium bromide (MTT) (5 mg/mL in PBS) was added to each well and further incubated for another 4 h. Then MTT solution was removed, and 150 μL of DMSO was added to each well. Absorbance of all wells was determined by measuring OD at 550 nm after a 10 min incubation on a 96-well GlowMaxate absorbance reader (Promega, Madison, Wis.). Each individual compound was tested in quadruplicate wells for each concentration.
(§2) The growth inhibitory effects of the newly generated pyran-fused diterpenoids were evaluated in four breast cancer cell lines MCF-7 (ER-positive), MDAMB-231 (ER-negative and triple-negative), MDA-MB-468 (ER-negative and triple-negative) as well as MCF-7/ADR (adriamycin-resistant) using MTT assays as described in the Experimental Section.

MCF-7/ADR = test: MTT growth inhibition, drug-resistant MCF-7/ADR; settings: Homo sapiens, NCI/ADR-RES, 48 h, Table 3; adriamycin-resistant; MTT 48 h; mean ± SE of three experiments
Experimental: as §1
as §2, with “Section. The capability of these new molecules to inhibit the growth of cancer cells was summarized in Table 3 and compared with that of adriamycin and 1 spontaneously.” for “Section.”

MDA-MB-468 = test: MTT cancer cell proliferation assay, MDA-MB-468; settings: Homo sapiens, MDA-MB-468, 48 h, Table 3; pyran-fused diterpenoids; MTT 48 h; mean ± SE of three experiments
Experimental: as §1
as §2, with “Section. The capability of these new molecules to inhibit the growth of cancer cells was summarized in Table 3 and compared with that of adriamycin and 1 spontaneously.” for “Section.”

MCF-7 = test: MTT cancer cell proliferation assay, MCF-7; settings: Homo sapiens, MCF7, 48 h, Table 3; pyran-fused diterpenoids; MTT 48 h; mean ± SE of three experiments; read-out: IC50 (μM) MCF-7
Experimental: as §1, §2

**Q.** For `C=C1C(=O)[C@@]23[C@@H]4OC(C)(C)O[C@@]25OC[C@]2(C6=C(CC[C@H](OCCCl)O6)CC(C)(C)[C@H]2[C@@H]5O)[C@@H]3CC[C@@H]14` [CYD-8-65-1], which IC50 (MDA-MB-231) is on record?
**A.** The IC50 was 3.3 ± 1.81 µM.

**Q.** What about the IC50 (MCF-7/ADR) of the same compound?
**A.** Its IC50 is 3.08 ± 1.12 µM.

**Q.** And the IC50 (MDA-MB-468)?
**A.** Its IC50 is 2.99 ± 1.01 µM.

**Q.** And the IC50 (MCF-7)?
**A.** The IC50 was 2.31 ± 1.02 µM.

**Q.** For `C=C1C(=O)[C@@]23[C@@H]4OC(C)(C)O[C@@]25OC[C@]2(C6=C(CC[C@@H](OCCCl)O6)CC(C)(C)[C@H]2[C@@H]5O)[C@@H]3CC[C@@H]14` [CYD-8-65-2], which IC50 (MDA-MB-231) is on record?
**A.** The IC50 was 7.15 ± 1.27 µM.

**Q.** What about the IC50 (MCF-7/ADR) of the same compound?
**A.** Its IC50 is 8.74 ± 0.27 µM.

**Q.** And the IC50 (MDA-MB-468)?
**A.** The IC50 was 7.26 ± 0.23 µM.

**Q.** What about the IC50 (MCF-7) of the same compound?
**A.** The IC50 was 6.76 ± 3.43 µM.

**Q.** `C=CCO[C@H]1CCC2=C(O1)[C@@]13CO[C@@]4(OC(C)(C)O[C@@H]5[C@H]6CC[C@@H]1[C@]54C(=O)C6=C)[C@@H](O)[C@@H]3C(C)(C)C2` [CYD-8-66-1] was tested. Which IC50 (MDA-MB-231) did it give?
**A.** Its IC50 is 7.12 ± 0.22 µM.

**Q.** And the IC50 (MCF-7/ADR)?
**A.** The IC50 was 4.31 ± 2.43 µM.

**Q.** What about the IC50 (MDA-MB-468) of the same compound?
**A.** The IC50 was 4.89 ± 0.85 µM.

**Q.** What about the IC50 (MCF-7) of the same compound?
**A.** Its IC50 is 4.32 ± 1.82 µM.

**Q.** With `C=CCO[C@@H]1CCC2=C(O1)[C@@]13CO[C@@]4(OC(C)(C)O[C@@H]5[C@H]6CC[C@@H]1[C@]54C(=O)C6=C)[C@@H](O)[C@@H]3C(C)(C)C2` [CYD-8-66-2] as the compound, how does the IC50 (MDA-MB-231) read?
**A.** Its IC50 is 3.3 ± 0.23 µM.

**Q.** What about the IC50 (MCF-7/ADR) of the same compound?
**A.** The IC50 was 3.19 ± 0.54 µM.

**Q.** What about the IC50 (MDA-MB-468) of the same compound?
**A.** The IC50 was 4.37 ± 1.48 µM.

**Q.** And the IC50 (MCF-7)?
**A.** The IC50 was 2.1 ± 0.98 µM.

**Q.** For `C=C1C(=O)[C@@]23[C@@H]4OC(C)(C)O[C@@]25OC[C@]2(C6=C(CC[C@H](OCCCCO)O6)CC(C)(C)[C@H]2[C@@H]5O)[C@@H]3CC[C@@H]14` [CYD-8-67-1], which IC50 (MDA-MB-231) is on record?
**A.** The IC50 was 3.18 ± 0.24 µM.

**Q.** What about the IC50 (MCF-7/ADR) of the same compound?
**A.** The IC50 was 4.51 ± 1.54 µM.

**Q.** What about the IC50 (MDA-MB-468) of the same compound?
**A.** The IC50 was 2.65 ± 0.14 µM.

**Q.** What about the IC50 (MCF-7) of the same compound?
**A.** Its IC50 is 2.14 ± 1.11 µM.

**Q.** Which IC50 (MDA-MB-231) does the source give for `C=C1C(=O)[C@@]23[C@@H]4OC(C)(C)O[C@@]25OC[C@]2(C6=C(CC[C@@H](OCCCCO)O6)CC(C)(C)[C@H]2[C@@H]5O)[C@@H]3CC[C@@H]14` [CYD-8-67-2] here?
**A.** Its IC50 is 5.89 ± 2.04 µM.

**Q.** What about the IC50 (MCF-7/ADR) of the same compound?
**A.** Its IC50 is 5.34 ± 1.29 µM.

**Q.** What about the IC50 (MDA-MB-468) of the same compound?
**A.** The IC50 was 5.96 ± 0.29 µM.

**Q.** What about the IC50 (MCF-7) of the same compound?
**A.** Its IC50 is 5.17 ± 2.9 µM.

**Q.** How did the IC50 (MDA-MB-231) turn out when `C=C1C(=O)[C@@]23[C@@H]4OC(C)(C)OC25OC[C@]2(C6=C(CC[C@H](OCCCC)O6)CC(C)(C)[C@H]2[C@@H]5O)[C@@H]3CC[C@@H]14` [CYD-8-69-1] was run?
**A.** The IC50 was 2.23 ± 0.39 µM.

**Q.** What about the IC50 (MCF-7/ADR) of the same compound?
**A.** Its IC50 is 3.8 ± 1.15 µM.

**Q.** What about the IC50 (MDA-MB-468) of the same compound?
**A.** The IC50 was 2.98 ± 0.67 µM.

**Q.** What about the IC50 (MCF-7) of the same compound?
**A.** The IC50 was 2.41 ± 1.45 µM.

**Q.** How did the IC50 (MDA-MB-231) turn out when `C=C1C(=O)[C@@]23[C@@H]4OC(C)(C)O[C@@]25OC[C@]2(C6=C(CC[C@H](OCC)O6)CC(C)(C)[C@H]2[C@@H]5O)[C@@H]3CC[C@@H]14` [CYD-8-69-2] was run?
**A.** Its IC50 is 3.73 ± 0.28 µM.

**Q.** And the IC50 (MCF-7/ADR)?
**A.** Its IC50 is 6.79 ± 3.46 µM.

**Q.** What about the IC50 (MDA-MB-468) of the same compound?
**A.** The IC50 was 5.81 ± 1.92 µM.

**Q.** And the IC50 (MCF-7)?
**A.** The IC50 was 2.41 ± 1.86 µM.

**Q.** With `C=C1C(=O)[C@@]23[C@@H]4OC(C)(C)O[C@@]25OC[C@]2(C6=C(C[C@H]7CCCO[C@H]7O6)CC(C)(C)[C@H]2[C@@H]5O)[C@@H]3CC[C@@H]14` [CYD-8-74-2] as the compound, how does the IC50 (MDA-MB-231) read?
**A.** The IC50 was 2.53 ± 0.77 µM.

**Q.** And the IC50 (MCF-7/ADR)?
**A.** Its IC50 is 2.89 ± 0.32 µM.

**Q.** And the IC50 (MDA-MB-468)?
**A.** The IC50 was 3.33 ± 0.58 µM.

**Q.** And the IC50 (MCF-7)?
**A.** Its IC50 is 2.39 ± 0.78 µM.

**Q.** With `C=C1C(=O)[C@@]23[C@@H]4OC(C)(C)O[C@@]25OC[C@]2(C6=C(CC[C@@H](SCC)O6)CC(C)(C)[C@H]2[C@@H]5O)[C@@H]3CC[C@@H]14` [CYD-8-84] as the compound, how does the IC50 (MDA-MB-231) read?
**A.** Its IC50 is 2.87 ± 0.54 µM.

**Q.** And the IC50 (MCF-7/ADR)?
**A.** The IC50 was 3.82 ± 0.47 µM.

**Q.** What about the IC50 (MDA-MB-468) of the same compound?
**A.** The IC50 was 2.83 ± 0.42 µM.

**Q.** And the IC50 (MCF-7)?
**A.** Its IC50 is 2.3 ± 1.4 µM.
